The IC50 is the concentration that inhibits the measured activity by half.

Where only a bound is given, the exact number is not on record here.

For 45 molecules, IC50 results are on record in ChEMBL document CHEMBL3132858, “6-Alkyl-, 6-aryl- or 6-hetaryl-7-deazapurine ribonucleosides as inhibitors of human or MTB adenosine kinase and potential antimycobacterial agents” (Medchemcomm, 2013).

The assay concerns Mycobacterium tuberculosis. In words: Antimycobacterial activity against Mycobacterium bovis BCG assessed as inhibition of microbial growth after 120 hrs by MTT assay. The format is functional, organism-based. The note with it: variant bovis BCG. A general note: Tetrazolium assays rely on reduction of a dye to a coloured formazan, in cell work by metabolically active cells.
Take `OC[C@H]1O[C@@H](n2ccc3c(-c4cccc5c4oc4ccccc45)ncnc32)[C@H](O)[C@@H]1O`: the IC50 is more than 100 µM.

`OC[C@H]1O[C@@H](n2ccc3c(-c4cc5ccccc5[nH]4)ncnc32)[C@H](O)[C@@H]1O`: the IC50 was more than 100 µM.

As for `OC[C@H]1O[C@@H](n2ccc3c(-c4cccc5c4sc4ccccc45)ncnc32)[C@H](O)[C@@H]1O`, the IC50 is more than 100 µM.

As for `OC[C@H]1O[C@@H](n2ccc3c(-c4cccc5c4Oc4ccccc4S5)ncnc32)[C@H](O)[C@@H]1O`, the IC50 was more than 100 µM.

Regarding `OC[C@H]1O[C@@H](n2cc(Cl)c3c(-c4ccc(F)cc4)ncnc32)[C@H](O)[C@@H]1O`, the IC50 was found to be 89.6 µM.

For `CCCCCCCCCCCCCCCCCCOP(=O)(O)OC[C@H]1O[C@@H](n2ccc3c(-c4ccccc4)ncnc32)[C@H](O)[C@@H]1O`, the IC50 was more than 100 µM.

Consider `CCCCCCCCCCCCCCCCCCOP(=O)(O)OC[C@H]1O[C@@H](n2ccc3c(-c4ccco4)ncnc32)[C@H](O)[C@@H]1O`, for which the IC50 was more than 100 µM.

On to `CCCCCCCCCCCCCCCCCCOP(=O)(O)OC[C@H]1O[C@@H](n2ccc3c(-c4ccoc4)ncnc32)[C@H](O)[C@@H]1O`, for which the IC50 came out at 56.6 µM.

For `CCCCCCCCCCCCCCCCCCOP(=O)(O)OC[C@H]1O[C@@H](n2ccc3c(-c4ccsc4)ncnc32)[C@H](O)[C@@H]1O`, the IC50 amounted to 82.8 µM.

For `CCCCCCCCCCCCCCCCCCOP(=O)(O)OC[C@H]1O[C@@H](n2ccc3c(-c4cc5ccccc5o4)ncnc32)[C@H](O)[C@@H]1O`, the IC50 stood at 93.4 µM.

For the molecule `OC[C@H]1O[C@@H](n2ccc3c(-c4cc5ccccc5o4)ncnc32)[C@H](O)[C@@H]1O`, the IC50 was more than 100 µM.

Turning to `OC[C@H]1O[C@@H](n2ccc3c(-c4cc5ccccc5s4)ncnc32)[C@H](O)[C@@H]1O`, the IC50 was more than 100 µM.

Regarding `OC[C@H]1O[C@@H](n2cc(F)c3c(-c4cccs4)ncnc32)[C@H](O)[C@@H]1O`, the IC50 was more than 100 µM.

Turning to `OC[C@H]1O[C@@H](n2cc(F)c3c(-c4cc[nH]c4)ncnc32)[C@H](O)[C@@H]1O`, the half-maximal inhibitory concentration (IC50) is more than 100 µM.

With `OC[C@H]1O[C@@H](n2cc(Cl)c3c(-c4ccsc4)ncnc32)[C@H](O)[C@@H]1O`, the IC50 was found to be 99.6 µM.

For the molecule `OC[C@H]1O[C@@H](n2cc(Cl)c3c(-c4ccccc4)ncnc32)[C@H](O)[C@@H]1O`, the IC50 was more than 100 µM.

`OC[C@H]1O[C@@H](n2ccc3c(Cc4ccccc4)ncnc32)[C@H](O)[C@@H]1O`: the IC50 was more than 100 µM.

As to `OC[C@H]1O[C@@H](n2ccc3c(-c4ccoc4)ncnc32)[C@H](O)[C@@H]1O`, the IC50 came to 83.7 µM.

`OC[C@H]1O[C@@H](n2cc(F)c3c(-c4ccco4)ncnc32)[C@H](O)[C@@H]1O`: the IC50 turned out to be 73.2 µM.

With `OC[C@H]1O[C@@H](n2cc(F)c3c(-c4c[nH]cn4)ncnc32)[C@H](O)[C@@H]1O`, the IC50 came to 11.7 µM.

For `OC[C@H]1O[C@@H](n2cc(F)c3c(-c4ccoc4)ncnc32)[C@H](O)[C@@H]1O`, the IC50 was determined as 91.2 µM.

As to `OC[C@H]1O[C@@H](n2cc(F)c3c(-c4nccs4)ncnc32)[C@H](O)[C@@H]1O`, the IC50 came out at 69 µM.

Regarding `OC[C@H]1O[C@@H](n2cc(F)c3c(-c4ccsc4)ncnc32)[C@H](O)[C@@H]1O`, the IC50 is more than 100 µM.

Regarding `OC[C@H]1O[C@@H](n2ccc3c(-c4ccccn4)ncnc32)[C@H](O)[C@@H]1O`, the half-maximal inhibitory concentration (IC50) was 38.2 µM.

As to `OC[C@H]1O[C@@H](n2cc(Cl)c3c(-c4ccoc4)ncnc32)[C@H](O)[C@@H]1O`, the concentration for half-maximal inhibition (IC50) was found to be 97.1 µM.

Take `OC[C@H]1O[C@@H](n2ccc3c(-c4c[nH]cn4)ncnc32)[C@H](O)[C@@H]1O`: the IC50 was 15.6 µM.

Consider `OC[C@H]1O[C@@H](n2ccc3c(-c4ccc[nH]4)ncnc32)[C@H](O)[C@@H]1O`, for which the IC50 was found to be 56.4 µM.

Take `OC[C@H]1O[C@@H](n2ccc3c(-c4ccc(F)cc4)ncnc32)[C@H](O)[C@@H]1O`: the half-inhibitory concentration (IC50) is 93.8 µM.

On to `OC[C@H]1O[C@@H](n2ccc3c(-c4ccsc4)ncnc32)[C@H](O)[C@@H]1O`, for which the IC50 came out at 81 µM.

In the case of `OC[C@H]1O[C@@H](n2ccc3c(-c4ccco4)ncnc32)[C@H](O)[C@@H]1O`, the half-inhibitory concentration (IC50) was more than 100 µM.

For the molecule `OC[C@H]1O[C@@H](n2ccc3c(-c4ccn[nH]4)ncnc32)[C@H](O)[C@@H]1O`, the IC50 was 91.1 µM.

Consider `COc1ccc(-c2ncnc3c2ccn3[C@@H]2O[C@H](CO)[C@@H](O)[C@H]2O)cc1`, for which the IC50 came out at 56.9 µM.

Consider `OC[C@H]1O[C@@H](n2ccc3c(-c4nccs4)ncnc32)[C@H](O)[C@@H]1O`, for which the IC50 amounted to 80.5 µM.

As for `OC[C@H]1O[C@@H](n2ccc3c(-c4ccc[se]4)ncnc32)[C@H](O)[C@@H]1O`, the half-inhibitory concentration (IC50) is more than 100 µM.

Turning to `OCc1ncnc2c1ccn2[C@@H]1O[C@H](CO)[C@@H](O)[C@H]1O`, the half-inhibitory concentration (IC50) worked out at 32.6 µM.

For `OC[C@H]1O[C@@H](n2ccc3c(-c4cccnc4)ncnc32)[C@H](O)[C@@H]1O`, the IC50 is more than 100 µM.

On to `OC[C@H]1O[C@@H](n2ccc3c(-c4cn[nH]c4)ncnc32)[C@H](O)[C@@H]1O`, for which the IC50 is more than 100 µM.

With `OC[C@H]1O[C@@H](n2ccc3c(-c4cc[nH]c4)ncnc32)[C@H](O)[C@@H]1O`, the IC50 came out at 98.2 µM.

`CCc1ncnc2c1ccn2[C@@H]1O[C@H](CO)[C@@H](O)[C@H]1O`: the half-maximal inhibitory concentration (IC50) came out at 88.8 µM.

Turning to `OC[C@H]1O[C@@H](n2cc(F)c3c(-c4ccccc4)ncnc32)[C@H](O)[C@@H]1O`, the half-inhibitory concentration (IC50) was 74.8 µM.

For the molecule `OC[C@H]1O[C@@H](n2cc(F)c3c(-c4ccc[nH]4)ncnc32)[C@H](O)[C@@H]1O`, the IC50 stood at 45.8 µM.

Regarding `OC[C@H]1O[C@@H](n2cc(Cl)c3c(-c4cccs4)ncnc32)[C@H](O)[C@@H]1O`, the IC50 was 96.4 µM.

For the molecule `OC[C@H]1O[C@@H](n2cc(Cl)c3c(-c4ccco4)ncnc32)[C@H](O)[C@@H]1O`, the IC50 was determined as 89.2 µM.

As to `OC[C@H]1O[C@@H](n2ccc3c(-c4ccccc4)ncnc32)[C@H](O)[C@@H]1O`, the IC50 is 75.2 µM.

On to `OC[C@H]1O[C@@H](n2ccc3c(-c4cccs4)ncnc32)[C@H](O)[C@@H]1O`, for which the IC50 is more than 100 µM.
